# Data reported in ChEMBL document CHEMBL1125860 (J Med Chem, 1991).
# pIC50: −log10 of the molar value. Active and inactive are the calls of the source. No cut-off for these calls is given here.
# Legend:
# Rattus norvegicus [1] = assay: In vivo inhibition of galactitol accumulation in diaphragm of rat at 4 mg/kg/day; assay type: functional
# Rattus norvegicus [2] = assay: In vivo inhibition of galactitol accumulation in sciatic nerves of rat at 4 mg/kg/day; assay type: functional; conditions: Sciatic nerve
# Rattus norvegicus [3] = species on record: Rattus norvegicus; assay: (§1) In vitro inhibition of sorbitol accumulation was measured in rat sciatic nerves incubated in the presence of 50 mM glucose at 10e-6 M concentration; assay type: functional, Sciatic nerve
# Rattus norvegicus [4] = assay: Effective dose of aldose reductase was evaluated by measuring galactitol accumulation in sciatic nerves of rat at 4 mg/kg/day; assay type: functional; conditions: Sciatic nerve
# Rattus norvegicus [5] = species on record: Rattus norvegicus; assay: as §1; assay type: functional; conditions: Sciatic nerve
# Rattus norvegicus [6] = species on record: Rattus norvegicus; assay: (§2) In vitro inhibition of sorbitol accumulation was measured in rat sciatic nerves incubated in the presence of 50 mM glucose at 10e-5 M concentration; assay type: functional; conditions: Sciatic nerve
# Rattus norvegicus [7] = species on record: Rattus norvegicus; assay: as §2; assay type: functional, Sciatic nerve
# Rattus norvegicus [8] = assay: In vivo inhibition of galactitol accumulation in diaphragm of rat at 94 mg/kg/day; assay type: functional
# Rattus norvegicus [9] = assay: In vivo inhibition of galactitol accumulation in sciatic nerves of rat at 94 mg/kg/day; Not significant; assay type: functional, organism-based; conditions: Sciatic nerve
# [10] = target: Aldo-keto reductase family 1 member B1 (Bos taurus) (UniProt P16116); assay: In vitro % decrease of aldose reductase measured in isolated partially purified bovine lens preparations at 10e-7 M concentration
# Rattus norvegicus [11] = assay: In vivo inhibition of galactitol accumulation in sciatic nerves of rat at 20 mg/kg/day; assay type: functional; conditions: Sciatic nerve
# Rattus norvegicus [12] = assay: In vivo inhibition of galactitol accumulation in diaphragm of rat at 20 mg/kg/day; assay type: functional
# Rattus norvegicus [13] = assay: In vivo inhibition of galactitol accumulation in sciatic nerves of rat at 16 mg/kg/day; assay type: functional; conditions: Sciatic nerve
# Rattus norvegicus [14] = assay: In vivo inhibition of galactitol accumulation in diaphragm of rat at 114 mg/kg/day; Not significant; assay type: functional, organism-based
# Rattus norvegicus [15] = assay: In vivo inhibition of galactitol accumulation in sciatic nerves of rat at 114 mg/kg/day; Not significant; assay type: functional, organism-based; conditions: Sciatic nerve
# Rattus norvegicus [16] = assay: In vivo inhibition of galactitol accumulation in sciatic nerves of rat at 28 mg/kg/day; assay type: functional; conditions: Sciatic nerve
# Rattus norvegicus [17] = assay: In vivo inhibition of galactitol accumulation in diaphragm of rat at 28 mg/kg/day; assay type: functional
# Rattus norvegicus [18] = assay: In vivo inhibition of galactitol accumulation in sciatic nerves of rat at 144 mg/kg/day; assay type: functional; conditions: Sciatic nerve
# Rattus norvegicus [19] = assay: In vivo inhibition of galactitol accumulation in diaphragm of rat at 144 mg/kg/day; assay type: functional
# Rattus norvegicus [20] = assay: In vivo inhibition of galactitol accumulation in diaphragm of rat at 10 mg/kg/day; assay type: functional
# Rattus norvegicus [21] = species on record: Rattus norvegicus; assay: Inhibition of aldose reductase activity was measured by measuring […] in the RBC of galactose fed rat.; assay type: functional
# Rattus norvegicus [22] = assay: In vivo inhibition of galactitol accumulation in diaphragm of rat at 5 mg/kg/day; assay type: functional
# Rattus norvegicus [23] = species on record: Rattus norvegicus; assay: Inhibition of aldose reductase activity was measured by measuring sorbitor accumulation in the sciatic nerves of STZ diabetic rat.; assay type: functional; conditions: Sciatic nerve
# Rattus norvegicus [24] = species on record: Rattus norvegicus; assay: Inhibition of galactitol accumulation in sciatic nerves of rat incubated in presence of 50 mM glucose.; assay type: functional, organism-based; conditions: Sciatic nerve
# Rattus norvegicus [25] = species on record: Rattus norvegicus; assay: Inhibition of galactitol accumulation in rat RBC incubated in presence of 50 mM glucose; assay type: functional, organism-based
# Rattus norvegicus [26] = species on record: Rattus norvegicus; assay: Inhibition of galactitol accumulation in rat lens incubated in presence of 50 mM glucose; assay type: functional, organism-based; conditions: Lens of camera-type eye
# Rattus norvegicus [27] = assay: In vivo inhibition of galactitol accumulation in sciatic nerves of rat at 5 mg/kg/day; assay type: functional; conditions: Sciatic nerve
# Rattus norvegicus [28] = species on record: Rattus norvegicus; assay: Inhibition of aldose reductase activity was measured by measuring […] in the sciatic nerves of galactose fed rat.; assay type: functional; conditions: Sciatic nerve
# [29] = target: Aldo-keto reductase family 1 member B1 (Bos taurus, UniProt P16116); assay: Inhibition of aldose reductase activity was measured on partially purified bovine lens preparations incubated in presence of 50 mM glucose.
# Rattus norvegicus [30] = assay: In vivo inhibition of galactitol accumulation in sciatic nerves of rat at 10 mg/kg/day; assay type: functional; conditions: Sciatic nerve
# Rattus norvegicus [31] = assay: In vivo inhibition of galactitol accumulation in sciatic nerves of rat at 133 mg/kg/day; assay type: functional; conditions: Sciatic nerve
# Rattus norvegicus [32] = assay: In vivo inhibition of galactitol accumulation in diaphragm of rat at 133 mg/kg/day; assay type: functional
# Rattus norvegicus [33] = assay: In vivo inhibition of galactitol accumulation in diaphragm of rat at 43 mg/kg/day; Not significant; assay type: functional, organism-based
# Rattus norvegicus [34] = assay: In vivo inhibition of galactitol accumulation in sciatic nerves of rat at 43 mg/kg/day; Not significant; assay type: functional, organism-based; conditions: Sciatic nerve
# Rattus norvegicus [35] = assay: In vivo inhibition of galactitol accumulation in sciatic nerves of rat at 25 mg/kg/day; assay type: functional; conditions: Sciatic nerve
# Rattus norvegicus [36] = assay: In vivo inhibition of galactitol accumulation in diaphragm of rat at 25 mg/kg/day; assay type: functional
# Rattus norvegicus [37] = assay: In vivo inhibition of galactitol accumulation in diaphragm of rat at 15 mg/kg/day; assay type: functional
# Rattus norvegicus [38] = assay: In vivo inhibition of galactitol accumulation in sciatic nerves of rat at 15 mg/kg/day; assay type: functional; conditions: Sciatic nerve
# Rattus norvegicus [39] = assay: In vivo inhibition of galactitol accumulation in sciatic nerves of rat at 53 mg/kg/day; Not significant; assay type: functional, organism-based; conditions: Sciatic nerve
# Rattus norvegicus [40] = assay: In vivo inhibition of galactitol accumulation in diaphragm of rat at 53 mg/kg/day; Not significant; assay type: functional, organism-based
compound,measurement,setting,value
O=C1NC(=O)[C@@]2(CCOc3ccc(F)cc32)N1 [SORBINIL],inhibition in vivo at 4 mg/kg/day,Rattus norvegicus [1],69%
same,inhibition in vivo at 4 mg/kg/day,Rattus norvegicus [2],55%
same,Inhibition,Rattus norvegicus [3],27%
same,ED50,Rattus norvegicus [4],4.2 mg/kg
same,pIC50,Rattus norvegicus [5],5.66
same,pIC50,Rattus norvegicus [6],5.66
same,Inhibition,Rattus norvegicus [7],96%
CCCCc1ccc2c(C(F)(F)F)c(OC)ccc2c1C(=O)N(C)CC(=O)O,inhibition in vivo at 94 mg/kg/day,Rattus norvegicus [8],37%
same,inhibition,Rattus norvegicus [9],inactive
same,inhibition,[10],23%
COc1ccc2c(C(=O)N(C)CC(=O)O)c(F)ccc2c1C(F)(F)F,inhibition in vivo at 20 mg/kg/day,Rattus norvegicus [11],62%
same,Inhibition,Rattus norvegicus [3],41%
same,inhibition in vivo at 20 mg/kg/day,Rattus norvegicus [12],72%
same,inhibition,[10],80%
same,inhibition in vivo at 16 mg/kg/day,Rattus norvegicus [13],45%
same,Inhibition,Rattus norvegicus [7],66%
COc1ccc2c(C(=O)N(C)CC(=O)O)cc(C)cc2c1Br,inhibition,Rattus norvegicus [14],inactive
same,inhibition,Rattus norvegicus [15],inactive
same,Inhibition,Rattus norvegicus [3],20%
same,inhibition,[10],63%
same,Inhibition,Rattus norvegicus [7],52%
CCOc1ccc2c(C(F)(F)F)c(OC)ccc2c1C(=S)N(C)CC(=O)O,inhibition in vivo at 28 mg/kg/day,Rattus norvegicus [16],46%
same,inhibition in vivo at 28 mg/kg/day,Rattus norvegicus [17],85%
same,inhibition,[10],87%
COc1ccc2c(C(=S)N(C)CC(=O)O)cc(Cc3ccccc3)cc2c1Br,inhibition in vivo at 144 mg/kg/day,Rattus norvegicus [18],46%
same,Inhibition,Rattus norvegicus [3],48%
same,inhibition,[10],84%
same,inhibition in vivo at 144 mg/kg/day,Rattus norvegicus [19],84%
same,Inhibition,Rattus norvegicus [7],78%
COC(=O)N(CC(=O)O)C(=O)c1c(F)ccc2c(C(F)(F)F)c(OC)ccc12,inhibition in vivo at 10 mg/kg/day,Rattus norvegicus [20],62%
same,ED50,Rattus norvegicus [21],3.5 mg/kg
same,inhibition in vivo at 5 mg/kg/day,Rattus norvegicus [22],52%
same,ED50,Rattus norvegicus [23],4 mg/kg
same,pIC50,Rattus norvegicus [24],5.55
same,pIC50,Rattus norvegicus [25],7.72
same,pIC50,Rattus norvegicus [26],6.47
same,Inhibition,Rattus norvegicus [3],36%
same,inhibition in vivo at 5 mg/kg/day,Rattus norvegicus [27],50%
same,ED50,Rattus norvegicus [28],4.8 mg/kg
same,inhibition,[10],86%
same,pIC50,[29],7.60
same,Inhibition,Rattus norvegicus [7],61%
same,inhibition in vivo at 10 mg/kg/day,Rattus norvegicus [30],61%
COc1ccc2c(C(=S)N(C)CC(=O)O)cc(-c3ccccc3)cc2c1Br,Inhibition,Rattus norvegicus [3],30%
same,inhibition,[10],81%
same,inhibition in vivo at 133 mg/kg/day,Rattus norvegicus [31],58%
same,inhibition in vivo at 133 mg/kg/day,Rattus norvegicus [32],85%
same,Inhibition,Rattus norvegicus [7],68%
CCOC(=O)N(CC(=O)O)C(=O)c1c(Br)ccc2c(C(F)(F)F)c(OC)ccc12,inhibition,Rattus norvegicus [33],inactive
same,Inhibition,Rattus norvegicus [3],52%
same,inhibition,[10],76%
same,inhibition,Rattus norvegicus [34],inactive
same,Inhibition,Rattus norvegicus [7],73%
CCOC(=O)N(CC(=O)O)C(=O)c1c(F)ccc2c(C(F)(F)F)c(OC)ccc12,Inhibition,Rattus norvegicus [3],51%
same,inhibition in vivo at 25 mg/kg/day,Rattus norvegicus [35],70%
same,inhibition in vivo at 25 mg/kg/day,Rattus norvegicus [36],65%
same,inhibition,[10],87%
same,inhibition in vivo at 15 mg/kg/day,Rattus norvegicus [37],59%
same,inhibition in vivo at 15 mg/kg/day,Rattus norvegicus [38],55%
same,Inhibition,Rattus norvegicus [7],75%
COc1ccc2c(C(F)(F)F)c(OC)ccc2c1C(=O)N(C)CC(=O)O,inhibition,Rattus norvegicus [39],inactive
same,Inhibition,Rattus norvegicus [3],33%
same,inhibition,[10],62%
same,Inhibition,Rattus norvegicus [7],48%
same,inhibition,Rattus norvegicus [40],inactive
